From patent publication US7998965B2, “Glutamate aggrecanase inhibitors” (Wyeth LLC, priority 2005, dated 2011)
Where two headings read alike, the source gives them in different places.

Experiments:
[1] = target: T1, purified recombinant human Aggrecanase-1 (rAgg1) (Homo sapiens, UniProt O75173); experiment: In vitro fluorescence screen for Aggrecanase-1 inhibitors; format: biochemical; design: Agg1 % at concentration: scale not given here; conditions: for IC50: read-out: Agg1 IC50; for Ki: read-out: Ki Agg1
T1 sequence (O75173 213-837): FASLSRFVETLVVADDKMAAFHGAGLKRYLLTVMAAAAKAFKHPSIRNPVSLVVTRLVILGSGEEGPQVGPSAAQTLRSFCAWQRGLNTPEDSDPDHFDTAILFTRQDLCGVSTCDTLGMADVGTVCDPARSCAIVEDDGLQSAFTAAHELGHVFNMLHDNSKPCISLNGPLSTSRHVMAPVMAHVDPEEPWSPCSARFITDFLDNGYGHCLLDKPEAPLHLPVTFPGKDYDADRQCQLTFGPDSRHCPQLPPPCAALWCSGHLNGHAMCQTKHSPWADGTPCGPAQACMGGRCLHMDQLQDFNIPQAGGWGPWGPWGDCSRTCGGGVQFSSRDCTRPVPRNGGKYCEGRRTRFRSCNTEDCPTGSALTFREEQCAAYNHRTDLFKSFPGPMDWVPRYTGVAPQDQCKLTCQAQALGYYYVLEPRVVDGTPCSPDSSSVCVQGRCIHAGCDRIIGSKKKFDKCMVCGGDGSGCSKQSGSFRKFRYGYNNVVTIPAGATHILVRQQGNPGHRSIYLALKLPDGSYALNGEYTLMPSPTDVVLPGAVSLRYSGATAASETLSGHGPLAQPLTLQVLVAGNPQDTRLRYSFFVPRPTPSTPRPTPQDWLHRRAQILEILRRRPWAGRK

[2] = target: T2, purified recombinant human Aggrecanase-2 (Ag2t-Phe628-Strep) (Homo sapiens, UniProt Q9UNA0); experiment: In vitro fluorescence screen for Aggrecanase-2 inhibitors; format: biochemical; conditions: for IC50: read-out: Agg 2 IC50; for Ki: read-out: Ki Agg2; for Agg 2 % at concentration: at 25000 (nM)
T2 construct: the form used is denoted as Ag2t-Phe628-Strep (MW=41,737)
T2 sequence (Q9UNA0 262-628): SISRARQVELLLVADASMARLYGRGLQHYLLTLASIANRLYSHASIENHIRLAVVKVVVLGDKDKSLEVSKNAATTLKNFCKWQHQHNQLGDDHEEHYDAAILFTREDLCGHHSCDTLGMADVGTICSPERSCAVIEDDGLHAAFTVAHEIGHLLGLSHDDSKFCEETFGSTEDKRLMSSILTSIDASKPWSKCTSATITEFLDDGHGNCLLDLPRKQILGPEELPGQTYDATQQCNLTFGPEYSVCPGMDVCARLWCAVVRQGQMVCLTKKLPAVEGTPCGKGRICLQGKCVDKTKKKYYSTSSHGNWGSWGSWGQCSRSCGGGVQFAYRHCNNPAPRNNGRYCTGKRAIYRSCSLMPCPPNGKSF

| Structure (SMILES) | IC50 ([1]; Table 2) | IC50 ([2]; Table 2) | also measured |
| --- | --- | --- | --- |
| CC(C)c1ccc(-c2ccc(C(=O)N[C@@H](CCC(=O)O)C(=O)NC(C)(C)Cc3ccccc3)cc2)cc1 [Example 17T, N-(1,1-dimethyl-2-phenylethyl)-N^2-[(4′-isopropylbiphenyl-4-yl)carbonyl]-L-α-glutamine] | 3200 nM | 7200 nM |  |
| COc1cccc(COc2ccc(-c3ccc(C(=O)N[C@@H](CCC(=O)O)C(=O)NCc4cc(OC)c(OC)c(OC)c4)cc3)cc2)c1 [Example 19H, N^2-({4′-[(3-methoxybenzyl)oxy]biphenyl-4-yl}carbonyl)-N-(3,4,5-trimethoxybenzyl)-L-α-glutamine] | 69 nM | 158 nM |  |
| COc1ccc(-c2ccc(C(=O)N[C@@H](CCC(=O)O)C(=O)NC(C)(C)Cc3ccccc3)cc2)c(OC)c1 [Example 17Q, N^2-[(2′,4′-dimethoxybiphenyl-4-yl)carbonyl]-N-(1,1-dimethyl-2-phenylethyl)-L-α-glutamine] | ~13000 nM | > 30000 nM |  |
| CC(C)(Cc1ccccc1)NC(=O)[C@H](CCC(=O)O)NC(=O)c1ccc(-c2cccs2)cc1 [N-(1,1-dimethyl-2-phenylethyl)-N^2-[4-(2-thienyl)benzoyl]-L-α-glutamine] |  |  | IC50 ([1]; Table 3): < 30 nM; Ki ([1]; Table 3): < 3 nM; IC50 ([2]; Table 3): 60 to 200 nM; Ki ([2]; Table 3): 38 nM |
| COc1cc(CNC(=O)[C@H](CCC(=O)O)NC(=O)C2c3ccccc3-c3ccccc32)cc(OC)c1OC [Example 8VVVV, N^2-(9H-fluoren-9-ylcarbonyl)-N^1-(3,4,5-trimethoxybenzyl)-L-α-glutamine] | > 17000 nM | > 67000 nM |  |
| CCOc1cccc(-c2ccc(C(=O)N[C@@H](CCC(=O)O)C(=O)NCc3cc(OC)c(OC)c(OC)c3)cc2)c1 [Example 16, N^2-[(3′-ethoxybiphenyl-4-yl)carbonyl]-N-(3,4,5-trimethoxybenzyl)-L-α-glutamine] | < 30 nM | 467 nM |  |
| O=C(O)CC[C@H](NC(=O)c1ccc(/C=C/C(=O)c2ccccc2)cc1)C(=O)NCc1ccccc1 [Example 12I, N-benzyl-N^2-{4-[(1E)-3-oxo-3-phenylprop-1-en-1-yl]benzoyl}-L-α-glutamine] | > 25000 nM | > 20000 nM |  |
| COc1cccc(COc2ccc(-c3ccc(C(=O)N[C@@H](CCC(=O)O)C(=O)NC(C)(C)Cc4ccccc4)cc3)cc2)c1 [Example 19F, N-(1,1-dimethyl-2-phenylethyl)-N^2-({4′-[(3-methoxybenzyl)oxy]biphenyl-4-yl}carbonyl)-L-α-glutamine] | 68 nM | 163 nM |  |
| Cc1cccc(-c2ccc(C(=O)N[C@@H](CCC(=O)O)C(=O)NC(C)(C)Cc3ccc(F)cc3)cc2)c1 [Example 17Y, N-[2-(4-fluorophenyl)-1,1-dimethylethyl]-N^2-[(3′-methylbiphenyl-4-yl)carbonyl]-L-α-glutamine] | < 30 nM | 156 nM |  |
| O=C(O)CC[C@H](NC(=O)c1ccc(-c2ccccc2)cc1)C(=O)NCCc1ccccc1 [Example 8FFF, N^2-(1,1′-biphenyl-4-ylcarbonyl)-N^1-(2-phenylethyl)-L-α-glutamine] |  |  | IC50 ([1]; Table 1): 200 nM; IC50 ([2]; Table 1): 1000 nM |
| CC(C)(Cc1ccc(Cl)cc1)NC(=O)[C@H](CCC(=O)O)NC(=O)c1ccc(-c2ccc(C=O)s2)cc1 [N-[2-(4-chlorophenyl)-1,1-dimethylethyl]-N^2-[4-(5-formyl-2-thienyl)benzoyl]-L-α-glutamine] |  |  | IC50 ([1]; Table 3): < 30 nM; IC50 ([2]; Table 3): 900 nM |
| COc1cc(OC)cc(OCc2ccc(-c3ccc(C(=O)N[C@@H](CCC(=O)O)C(=O)NCc4cccc(C)c4)cc3)cc2)c1 [Example 15Q, N^2-({4′-[(3,5-dimethoxyphenoxy)methyl]biphenyl-4-yl}carbonyl)-N-(3-methylbenzyl)-L-α-glutamine] |  |  | IC50 ([1]; Table 3): 158 nM; IC50 ([2]; Table 3): 1940 nM |
| CC(C)(Cc1ccccc1)NC(=O)[C@H](CCC(=O)O)NC(=O)c1ccc(-c2ccncc2)s1 [N-(1,1-dimethyl-2-phenylethyl)-N^2-[(5-pyridin-4-yl-2-thienyl)carbonyl]-L-α-glutamine] |  |  | IC50 ([1]; Table 3): < 30 nM; IC50 ([2]; Table 3): 3300 nM |
| CC(C)c1cccc(-c2ccc(C(=O)N[C@@H](CCC(=O)O)C(=O)NC(C)(C)Cc3ccc(F)cc3)cc2)c1 [Example 17FF, N-[2-(4-fluorophenyl)-1,1-dimethylethyl]-N^2-[(3′-isopropylbiphenyl-4-yl)carbonyl]-L-α-glutamine] | 690 nM | 13900 nM |  |
| O=C(O)CC[C@H](NC(=O)c1ccc2c(c1)Cc1ccccc1-2)C(=O)NC12CC3CC(CC(C3)C1)C2 [Example 8AAAAA, N^1-1-adamantyl-N^2-(9H-fluoren-2-ylcarbonyl)-L-α-glutamine] | 372 nM | 410 nM |  |
| CN(C)C(=O)c1cccc(-c2ccc(C(=O)N[C@@H](CCC(=O)O)C(=O)NCC34CC5CC(CC(C5)C3)C4)cc2)c1 [Example 17W, N-(1-adamantylmethyl)-N^2-({3′-[(dimethylamino)carbonyl]biphenyl-4-yl}carbonyl)-L-α-glutamine] | > 25000 nM | ~67000 nM |  |
| CC(C)(Cc1ccc(F)cc1)NC(=O)[C@H](CCC(=O)O)NC(=O)c1ccc(-c2ccc(F)c(Cl)c2)s1 [N^2-{[5-(3-chloro-4-fluorophenyl)-2-thienyl]carbonyl}-N-[2-(4-fluorophenyl)-1,1-dimethylethyl]-L-α-glutamine] |  |  | IC50 ([1]; Table 3): < 30 nM; Ki ([1]; Table 3): 6.7 nM; IC50 ([2]; Table 3): 98 nM; Ki ([2]; Table 3): 45 nM |
| CC(C)(Cc1ccc(Cl)cc1)NC(=O)[C@H](CCC(=O)O)NC(=O)c1cccc(-c2ccc(Cl)s2)c1 [Example 8JJJJJJJJJ, N-[2-(4-chlorophenyl)-1,1-dimethylethyl]-N^2-[3-(5-chloro-2-thienyl)benzoyl]-L-α-glutamine] |  |  | Agg1 % at concentration ([1]; Table 3, at 25000 (nM)): 25%; Agg 2 % at concentration ([2]; Table 3): 10% |
| CC(C)(Cc1ccc(Cl)cc1)NC(=O)[C@H](CCC(=O)O)NC(=O)c1cccc(-c2cccs2)c1 [N-[2-(4-chlorophenyl)-1,1-dimethylethyl]-N^2-[3-(2-thienyl)benzoyl]-L-α-glutamine] |  |  | Agg1 % at concentration ([1]; Table 3, at 25000 (nM)): 16%; Agg 2 % at concentration ([2]; Table 3): 10% |
| CCOc1cccc(-c2ccc(C(=O)N[C@@H](CCC(=O)O)C(=O)NC(C)(C)Cc3ccccc3)cc2)c1 [Example 17MM, N-(1,1-dimethyl-2-phenylethyl)-N^2-[(3′-ethoxybiphenyl-4-yl)carbonyl]-L-α-glutamine] | 46 nM | 2710 nM |  |
| CC(C)(Cc1ccc(Cl)cc1)NC(=O)[C@H](CCC(=O)O)NC(=O)c1ccc(-c2ccc3c(c2)OCC3)cc1 [N-[2-(4-chlorophenyl)-1,1-dimethylethyl]-N^2-[4-(2,3-dihydro-1-benzofuran-6-yl)benzoyl]-L-α-glutamine] |  |  | Agg1 % at concentration ([1]; Table 3, at 200 (nM)): 65%; IC50 ([2]; Table 3): 90 to 270 nM |
| O=C(O)CC[C@H](NC(=O)c1ccc(-c2ccccc2)cc1)C(=O)NCCc1ccc(-c2ccccn2)cc1 [Example 10G, N^2-(biphenyl-4-ylcarbonyl)-N^1-[2-(4-pyridin-2-ylphenyl)ethyl]-L-α-glutamine] |  |  | IC50 ([1]; Table 1): 1000 nM; IC50 ([2]; Table 1): 4400 nM |
| CC(C)(Cc1ccccc1)NC(=O)[C@H](CCC(=O)O)NC(=O)c1ccc(-c2ccc(COc3cccc(C(C)(C)C)c3)cc2)cc1 [Example 15Y, N^2-({4′-[(3-tert-butylphenoxy)methyl]biphenyl-4-yl}carbonyl)-N-(1,1-dimethyl-2-phenylethyl)-L-α-glutamine] | 220 nM | 841 nM |  |
| CC(C)(Cc1ccccc1)NC(=O)[C@H](CCC(=O)O)NC(=O)c1ccc(-c2ccc(COc3cc(C(F)(F)F)cc(C(F)(F)F)c3)cc2)cc1 [Example 15O, N^2-[(4′-{[3,5-bis(trifluoromethyl)phenoxy]methyl}biphenyl-4-yl)carbonyl]-N-(1,1-dimethyl-2-phenylethyl)-L-α-glutamine] |  |  | IC50 ([1]; Table 3): 52 nM; IC50 ([2]; Table 3): 3130 nM |
| COc1cccc(COc2ccc(-c3ccc(C(=O)N[C@@H](CCC(=O)O)C(=O)NCC45CC6CC(CC(C6)C4)C5)cc3)cc2)c1 [Example 19A, N-(1-adamantylmethyl)-N^2-({4′-[(3-methoxybenzyl)oxy]biphenyl-4-yl}carbonyl)-L-α-glutamine] | 930 nM | 1020 nM |  |
